{"source": "patent US20120289432A1", "about": "“PI3K MODULATORS, RHO KINASE MODULATORS AND METHODS OF IDENTIFYING AND USING SAME” (Corning Incorporated, priority 2009, published 2012)", "format_in_all_cases": "cell-based, human", "key": {"A549 cells [1]": {"system": "A549 cells", "experiment": "Label-free RWG (Epic) biosensor DMR assay, agonism mode, A549 cells", "settings": "primary profile", "method": "(§1) Cells were typically grown using ˜1 to 2×10^4 cells per well at passage 3 to 15 suspended in 50 μl of the corresponding culture medium in the biosensor microplate, and were cultured at 37° C. under air/5% CO2 for ˜1 day. Except for A431 which underwent one day culture followed by one starvation in serum free medium, all other cells were directly assayed without starvation. The confluency for all cells at the time of assays was ˜95% to 100%.\n(§2) Epic® beta version wavelength interrogation system (Corning Inc., Corning, N.Y.) was used for whole cell sensing. This system consists of a temperature-control unit, an optical detection unit, and an on-board liquid handling unit with robotics. The detection unit is centered on integrated fiber optics, and enables kinetic measures of cellular responses with a time interval of ˜15 sec.\n(§3) For biosensor cellular assays, molecule solutions were made by diluting the stored concentrated solutions with the HBSS (1× Hanks balanced salt solution, plus 20 mM Hepes, pH 7.1), and transferred into a 384 well polypropylene molecule storage plate to prepare a molecule source plate. Both molecule and marker source plates were made separately when a two-step assay was performed. In parallel, the cells were washed twice with the HBSS and maintained in 30 μl of the HBSS to prepare a cell assay plate. Both the cell assay plate and the molecule and marker source plate(s) were then incubated in the hotel of the reader system. After ˜1 hr of incubation the baseline wavelengths of all biosensors in the cell assay microplate were recorded and normalized to zero. Afterwards, a 2 to 10 minute continuous recording was carried out to establish a baseline, and to ensure that the cells reached a steady state. Cellular responses were then triggered by pipetting 10 μl of the marker solutions into the cell assay plate using the on-board liquid handler.\n(§4) All studies were carried out at a controlled temperature (28° C.). At least two independent sets of experiments, each with at least three replicates, were performed."}, "HepG2 cells [2]": {"system": "HepG2 cells", "experiment": "Label-free RWG biosensor DMR assay, agonism mode, HepG2 cells", "settings": "primary profile", "method": "as §1, §2\n(§5) For biosensor cellular assays, molecule solutions were made by diluting the stored concentrated solutions with the HBSS (1× Hanks balanced salt solution, plus 20 mM Hepes, pH 7.1), and transferred into a 384 well polypropylene molecule storage plate to prepare a molecule source plate. […] Both the cell assay plate and the molecule and marker source plate(s) were then incubated in the hotel of the reader system. After ˜1 hr of incubation the baseline wavelengths of all biosensors in the cell assay microplate were recorded and normalized to zero. […]"}, "HT-29 cells": {"system": "HT-29 cells", "experiment": "Label-free RWG biosensor DMR assay, agonism mode, HT-29 cells", "settings": "primary profile", "method": "as §1, §2, §5"}, "A549 cells [3]": {"system": "A549 cells", "experiment": "DMR modulation of marker-induced responses (two-step assay) in A549 cells", "settings": "for modulation of the pinacidil response in A549 cells: compound pretreatment ~1 hr (10 micromolar), then pinacidil 10 micromolar", "method": "The index was generated after normalizing each marker-induced DMR signal in the presence of the inhibitor to its corresponding signal in the absence of the inhibitor. The percentage of modulation for each marker by the inhibitor was plotted as a function of the marker. As shown from left to right in a sequential order, the DMR events used for the basis of the modulation percentage calculation are: the N-DMR (50 min after stimulation) for pinacidil in A549, the P-DMR (50 min after stimulation) for forskolin in A549, the early P-DMR event (˜10 min after histamine stimulation) and the late P-DMR event (˜30 min after histamine stimulation) for histamine in A549, and the early P-DMR event (˜5 min after EGF stimulation) and the subsequent N-DMR event (˜30 min after EGF stimulation) for EGF in A431 cells. In all cases, the amplitudes of respective DMR events were used as the basis to calculate the percentages of modulation by the PI3K inhibitors. The same procedure was used to generate FIGS. 8 to 14.\nas §1, §3\nTo study the influence of molecules on a marker-induced response, a second stimulation with the marker at a fixed dose (typically at EC80 or EC100) was applied. The resonant wavelengths of all biosensors in the microplate were normalized again to establish a second baseline, right before the second stimulation. The two stimulations were usually separated by ˜1 hr.\nas §4"}, "HepG2 cells [4]": {"system": "HepG2 cells", "experiment": "DMR modulation of the ODN2006-induced response in HepG2 cells", "settings": "inhibitor 10 micromolar, ODN2006 500 nM", "method": "as §1\nas §3, with “Cellular responses were then triggered by pipetting 10 μl of the marker solutions into the cell assay plate using the on-board liquid handler.” left out"}, "A549 cells [5]": {"system": "A549 cells", "experiment": "Desensitization of pretreated A549 cells to stimulation with ROCK inhibitor Y-27632", "settings": "pretreatment 10 micromolar ~1 hour, then Y-27632 at EC100 (10 micromolar)", "source_text": "FIG. 19 The optical biosensor DMR signals of human lung cancer cell line A549 in response to a well-known Rho kinase inhibitor […] (10 micromolar) in the absence (“buffer”) and presence of two compounds (the Rho kinase inhibitor Y27632, and another Rho kinase inhibitor “compound”). Either of these two inhibitors at 10 micromolar was used to pretreat the A549 cells for ˜1 hr, before the stimulation with Y27632. The desensitization of cells to the second stimulation with Y27632 is an indicator that the compound used for the pretreatment of the cells is a Rho kinase inhibitor.\nFor biosensor cellular assays, molecule solutions were made by diluting the stored concentrated solutions with the HBSS (1× Hanks balanced salt solution, plus 20 mM Hepes, pH 7.1), and transferred into a 384 well polypropylene molecule storage plate to prepare a molecule source plate. Both molecule and marker source plates were made separately when a two-step assay was performed. In parallel, the cells were washed twice with the HBSS and maintained in 30 μl of the HBSS to prepare a cell assay plate. Both the cell assay plate and the molecule and marker source plate(s) were then incubated in the hotel of the reader system. After ˜1 hr of incubation the baseline wavelengths of all biosensors in the cell assay microplate were recorded and normalized to zero. […]"}}, "note": "Entries after “also recorded” stand apart in the source; their conditions may differ.", "data": [{"smiles": "C[C@@H](N)[C@H]1CC[C@H](C(=O)Nc2ccncc2)CC1", "note": "[Y-27632]", "values": [{"measurement": "DMR (biosensor) signal of the compound in A549 cells", "setting": "A549 cells [1]", "value": "detectable, and dose-dependent biosensor signals; also recorded: characteristic negative DMR signal"}, {"measurement": "DMR (biosensor) signal of the compound in HepG2 cells", "setting": "HepG2 cells [2]", "value": "net-zero DMR signal"}, {"measurement": "DMR (biosensor) signal of the compound in HT-29 cells", "setting": "HT-29 cells", "value": "detectable, and dose-dependent biosensor signals"}, {"measurement": "modulation of the pinacidil response in A549 cells", "setting": "A549 cells [3]", "value": "complete or significant attenuation; also recorded: attenuated"}, {"measurement": "modulation of the pinacidil response in A549 cells", "setting": "A549 cells [3]; listed as Y027632", "value": "dose-dependently attenuate"}, {"measurement": "modulation of the pinacidil response in A549 cells", "setting": "A549 cells [3]; listed as Y27632", "value": "fully attenuated; also recorded: almost completely attenuated"}, {"measurement": "modulation of the forskolin response (P-DMR) in A549 cells", "setting": "A549 cells [3]; inhibitor 10 micromolar, forskolin 16 micromolar", "value": "potentiated"}, {"measurement": "modulation of the histamine response (early and late P-DMR) in A549 cells", "setting": "A549 cells [3]; inhibitor 10 micromolar, histamine 10 micromolar", "value": "potentiated"}, {"measurement": "modulation of the PMA response in A549 cells", "setting": "A549 cells [3]; pretreatment 10 micromolar", "value": "potentiated"}, {"measurement": "modulation of the SLIGKV response in A549 cells", "setting": "A549 cells [3]; pretreatment 10 micromolar", "value": "potentiated"}, {"measurement": "modulation of the poly(IC) response in A549 cells", "setting": "A549 cells [3]; pretreatment 10 micromolar", "value": "potentiated"}, {"measurement": "modulation of the ODN2006 DMR signal in HepG2 cells", "setting": "HepG2 cells [4]", "value": "potentiated"}, {"measurement": "desensitization of A549 cells to second stimulation with Y-27632", "setting": "A549 cells [5]", "value": "significantly caused the cells desensitize"}]}]}
